Entries after “also recorded” stand apart in the source; their conditions may differ. Like-named read-outs stand apart in the source and are kept apart here.
What was measured:
L. salmonis (preadult 2) = test: In-vivo exposure of preadult salmon lice to 1 mg/L for 24 h; parameters: species or system Lepeophtheirus salmonis; conditions: for Efficacy at 1.0 mg/L (%): preadult 2 parasites
Procedure: The exposure of preadult 2 parasites were conducted as described in [48]. The parasites originated from a salmon louse strain sensitive to all tested compounds [49]. The cultivation of salmon lice was conducted at the NIVA Marine Research Station Solbergstrand in the Oslofjord. Laboratory reared Atlantic salmon of were kept in 1 m^3 tanks supplied with running seawater, salinity 33–35 parts per thousand, temperature 7–9°C. Salmon lice egg strings were harvested from adult females and hatched according to [50]. The preadult salmon lice were harvested on the day of exposure. Fish were anaesthetized with 100 mg/L metacaine for 2 min. The parasites were gently removed from the fish with forceps, placed directly in glass containers filled with 1000 mL filtered seawater and exposed to the compounds within 4 h.
Each group of parasites was exposed to 1 mg/L of the test substance for 24 h. The compounds were dissolved in DMSO and an emulsifier was added immediately before dilution with water. The bottles were finally incubated at 10°C according to [49], with continuous air supply, for 24 h.
After the incubation period was over, the solution with parasites was poured out through a funnel containing a filter. Parasites remaining attached to the bottle wall were classified as alive. Immobilized parasites were collected from the filter. […] All parasites in the two groups were counted and classified according to sex and developmental stage.

Lsa-nAChR1 (α1α2β1β2) = Lsa-nAChR1 (α1α2β1β2) (Lepeophtheirus salmonis, UniProt A0A7S5PZ05+A0A7S5Q3W4+A0A7S5Q7H3+A0A7S5U9A3); test: cell-based; assay type: cell-based; conditions: for agonist screening (pre- and co-application protocol): 1 μM; for type of effect on the receptor (agonist / partial-agonist / no effect): dose-response; for Emax: read-out: Max peak (% Ach); for inward current on average: 10 μM sazetidine A
Sequence of Lsa-nAChR1 (α1α2β1β2) (A0A7S5PZ05 entry or part of it): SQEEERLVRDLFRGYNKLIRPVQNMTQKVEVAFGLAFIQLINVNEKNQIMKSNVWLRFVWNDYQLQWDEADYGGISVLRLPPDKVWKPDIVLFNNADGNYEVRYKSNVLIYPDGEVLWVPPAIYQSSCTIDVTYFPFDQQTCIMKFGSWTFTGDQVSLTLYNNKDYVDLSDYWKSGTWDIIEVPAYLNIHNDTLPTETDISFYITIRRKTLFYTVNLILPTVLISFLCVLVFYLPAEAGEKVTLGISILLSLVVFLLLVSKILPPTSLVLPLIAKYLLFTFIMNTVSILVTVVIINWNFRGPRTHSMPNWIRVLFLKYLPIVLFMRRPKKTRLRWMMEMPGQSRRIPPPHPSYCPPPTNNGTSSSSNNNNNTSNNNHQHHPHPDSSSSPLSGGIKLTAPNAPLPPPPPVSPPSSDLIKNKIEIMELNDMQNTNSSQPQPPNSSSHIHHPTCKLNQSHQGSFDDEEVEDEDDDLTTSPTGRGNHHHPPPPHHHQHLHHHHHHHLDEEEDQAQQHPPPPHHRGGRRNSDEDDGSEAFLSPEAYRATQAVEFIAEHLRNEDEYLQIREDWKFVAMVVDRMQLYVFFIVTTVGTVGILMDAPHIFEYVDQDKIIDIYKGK
Sequence of Lsa-nAChR1 (α1α2β1β2) (A0A7S5Q3W4 entry or part of it): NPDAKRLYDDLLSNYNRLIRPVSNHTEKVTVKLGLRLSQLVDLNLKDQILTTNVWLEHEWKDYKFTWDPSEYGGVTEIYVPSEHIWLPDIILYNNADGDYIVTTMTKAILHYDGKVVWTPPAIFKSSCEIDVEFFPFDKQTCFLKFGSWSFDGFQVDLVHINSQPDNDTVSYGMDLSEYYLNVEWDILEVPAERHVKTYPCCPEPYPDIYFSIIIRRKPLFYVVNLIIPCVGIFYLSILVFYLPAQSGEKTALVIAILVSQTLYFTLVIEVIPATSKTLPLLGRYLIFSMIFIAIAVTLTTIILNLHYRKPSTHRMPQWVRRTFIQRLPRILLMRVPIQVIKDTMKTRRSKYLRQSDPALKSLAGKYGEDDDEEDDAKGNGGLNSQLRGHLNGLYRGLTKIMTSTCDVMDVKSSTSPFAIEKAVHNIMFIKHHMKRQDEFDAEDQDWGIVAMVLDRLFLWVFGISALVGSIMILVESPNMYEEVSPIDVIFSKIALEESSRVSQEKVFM
Sequence of Lsa-nAChR1 (α1α2β1β2) (A0A7S5U9A3 entry or part of it): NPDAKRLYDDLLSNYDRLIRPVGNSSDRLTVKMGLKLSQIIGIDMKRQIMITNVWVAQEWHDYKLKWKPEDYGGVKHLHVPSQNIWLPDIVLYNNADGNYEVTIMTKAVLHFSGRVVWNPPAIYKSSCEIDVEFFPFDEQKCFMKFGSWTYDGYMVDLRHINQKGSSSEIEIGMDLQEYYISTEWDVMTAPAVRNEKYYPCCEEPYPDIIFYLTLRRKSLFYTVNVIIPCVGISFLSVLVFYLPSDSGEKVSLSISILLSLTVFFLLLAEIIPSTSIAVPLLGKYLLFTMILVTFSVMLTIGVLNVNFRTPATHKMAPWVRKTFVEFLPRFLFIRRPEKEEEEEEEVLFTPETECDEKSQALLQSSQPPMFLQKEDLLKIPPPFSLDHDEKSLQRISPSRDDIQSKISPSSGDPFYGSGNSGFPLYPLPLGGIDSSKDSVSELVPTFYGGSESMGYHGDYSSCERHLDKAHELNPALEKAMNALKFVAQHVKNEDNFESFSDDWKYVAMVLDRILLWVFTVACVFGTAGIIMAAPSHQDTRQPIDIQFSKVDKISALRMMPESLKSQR
Sequence of Lsa-nAChR1 (α1α2β1β2) (A0A7S5Q7H3 entry or part of it): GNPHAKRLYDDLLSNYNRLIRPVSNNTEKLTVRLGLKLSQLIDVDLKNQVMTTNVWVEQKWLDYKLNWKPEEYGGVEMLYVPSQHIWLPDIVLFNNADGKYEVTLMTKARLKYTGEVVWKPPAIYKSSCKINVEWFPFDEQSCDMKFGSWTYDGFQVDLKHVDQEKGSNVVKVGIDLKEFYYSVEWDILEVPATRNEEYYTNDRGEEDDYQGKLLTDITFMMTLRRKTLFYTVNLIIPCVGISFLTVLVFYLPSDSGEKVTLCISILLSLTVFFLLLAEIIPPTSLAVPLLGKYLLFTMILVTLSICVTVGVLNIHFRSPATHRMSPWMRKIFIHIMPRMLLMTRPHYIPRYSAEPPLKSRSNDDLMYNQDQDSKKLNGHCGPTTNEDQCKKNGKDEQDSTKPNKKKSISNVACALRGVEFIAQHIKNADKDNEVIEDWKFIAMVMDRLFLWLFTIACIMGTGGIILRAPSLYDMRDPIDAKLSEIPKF
Procedure: (§1) Capped cRNAs were synthesized (T7 mMessage mMachine kit, Ambion, Austin, TX, USA) from the linearized vectors containing the different subunits according to the manufacturer’s protocol. cRNA samples were stored at -80°C until use. Oocytes were ordered from Ecocyte (Germany). Oocytes were microinjected using a Roboinject automatic injection system (Multi Channel Systems, Reutlingen, Germany) with 15–25 nl of cRNA solution (30–300 ng/μl per subunit) and then incubated at 18°C in sterile filtered Barth solution containing: NaCl (88 mM), KCl (1 mM), NaHCO3 (2.4 mM), HEPES (10 mM, pH 7.5), MgSO4·7H2O (0.82 mM), Ca(NO3)2·4H2O (0.33 mM), CaCl2·6H2O (0.41 mM), at pH 7.4, and supplemented with 20 μg/ml of kanamycin, 100 U/ml benzylpenicillin and 100 μg/ml streptomycin. Recordings were made 3–5 days post-cRNA injection.
(§2) Oocytes were impaled with two electrodes filled with 3 M KCl, and their membrane potentials were maintained at -80 mV throughout the experiment. Currents evoked by ACh or drugs were recorded using an automated process equipped with standard two-electrode voltage-clamp configuration (HiClamp, MultiChannel Systems). The principle of this system differs from standard electrophysiology because, instead of applying the compound in the perfusion, the oocyte is moved into a well from a 96-well microtiter plate containing the desired solution. Data were captured at 100 Hz, filtered at 10 Hz, and analyzed using proprietary data acquisition and analysis software running under Matlab (Mathworks Inc., Natick, MA, USA). Additional analyses were performed in Excel (Microsoft, Redmond, WA, USA). […] Concentration-activation curves were fitted with the equation: Y=100/1+10^H(logEC50−X) (1) where Y is the normalized response, logEC50 is the logarithm of the concentration of agonist eliciting half-maximal current amplitude, X is the log of dose or concentration, and H is the slope factor or Hill slope. Individual curves were standardized to the initial ACh (100 μM) application amplitude and subsequently averaged. EC50 values were determined from the mean of at least 3 or more cells.
(§3) Dose-response curves were obtained by sequential applications for 10s of increasing concentrations of ACh or drugs to oocytes expressing Lsa-nAChR1 or Lsa-nAChR2. A total time of 90 s time was allowed between applications for the channel to recover from any desensitization. To test the antagonistic effect of DHbE (Fig 5) and for the screening protocol (Fig 6), cells that evoked a significant current with ACh were exposed to the test compounds at 10 μM respectively 1 μM using a pre-application of 45 s and co-application of 10 s with ACh (1 μM).

Lsa-nAChR2 (α3β1β2) = Lsa-nAChR2 (α3β1β2) (Lepeophtheirus salmonis, UniProt A0A7S5PZ03+A0A7S5PZ05+A0A7S5Q7H3); test: cell-based; assay type: cell-based; conditions: for type of effect on the receptor (agonist / partial-agonist / super-agonist / no effect): dose-response; for agonist screening (pre- and co-application protocol): 1 μM; for Max peak (% Ach): maximal peak current compared to ACh 100 μM
Procedure: as §1, §2, §3

[1] = Xenopus oocytes, 1:1 (α:β) ratio
[2] = EC50 (nM), Xenopus oocytes, 1:1 (α:β) ratio
[3] = calculated EC50, text values in μM, 1:1 (α:β) ratio

| Molecule | Efficacy at 1.0 mg/L (%) (L. salmonis (preadult 2)) | EC50 (Lsa-nAChR1 (α1α2β1β2)) [nM] | agonist screening (pre- and co-application protocol) (Lsa-nAChR1 (α1α2β1β2); 1:1 (α:β) ratio) | type of effect on the receptor (agonist / partial-agonist / no effect) (Lsa-nAChR1 (α1α2β1β2); 1:1 (α:β) ratio) | Emax (Lsa-nAChR1 (α1α2β1β2)) [%] | EC50 (nM) (Lsa-nAChR2 (α3β1β2); [1]) | type of effect on the receptor (agonist / partial-agonist / super-agonist / no effect) (Lsa-nAChR2 (α3β1β2); 1:1 (α:β) ratio) | EC50 (nM) (Lsa-nAChR1 (α1α2β1β2); [1]) | agonist screening (pre- and co-application protocol) (Lsa-nAChR2 (α3β1β2); 1:1 (α:β) ratio) | Max peak (% Ach) (Lsa-nAChR2 (α3β1β2); 1:1 (α:β) ratio) [%] | other results |
| --- | --- | --- | --- | --- | --- | --- | --- | --- | --- | --- | --- |
| C/C(=N\C#N)N(C)Cc1ccc(Cl)nc1 [Acetamiprid] | 89.5 | 10300 | agonists | partial-agonist | 34.1 | No effect | did not affect; also recorded: did not demonstrate any ex-vivo effect | – | – | – | lethal effect / mortality of preadult parasites (L. salmonis (preadult 2)): significant lethal effect; also recorded: high mortality rates |
| COP(=O)(OC)SCn1c(=O)oc2cc(Cl)cnc21 [Azamethiphos] | – | – | – | – | – | No effect | – | No effect | – | – | – |
| CN/C(=N\[N+](=O)[O-])NCc1cnc(Cl)s1 [Clothianidin] | 54.3 | 37 | agonists | partial-agonists | 41.9 | – | partial-agonists | – | agonists | 75.4 | EC50 (Lsa-nAChR2 (α3β1β2)): 81 nM |
| CC1(C)C(C=C(Cl)Cl)C1C(=O)OC(C#N)c1cccc(Oc2ccccc2)c1 (stereo not drawn) [Cypermethrin] | – | – | – | – | – | No effect | – | No effect | – | – | – |
| CC1(C)[C@H](C(=O)O[C@H](C#N)c2cccc(Oc3ccccc3)c2)[C@@H]1C=C(Br)Br [Deltamethrin] | – | – | – | – | – | No effect | – | No effect | – | – | – |
| CN/C(=N/CC1CCOC1)N[N+](=O)[O-] (stereo not drawn) [Dinotefuran] | 100.0 | – | agonists | partial-agonists | 69.8 | – | super-agonist | – | agonists | 110.2 | EC50 (Lsa-nAChR1 (α1α2β1β2); [2]): 220 nM; EC50 (Lsa-nAChR2 (α3β1β2); [2]): 757 nM |
| O=[N+]([O-])NC1=NCCN1Cc1ccc(Cl)nc1 [Imidacloprid] | 100.0 | 69 | agonists | – | 31.8 | No effect | no effect; also recorded: did not affect; also recorded: did not demonstrate any ex-vivo effect | – | – | – | lethal effect / mortality of preadult parasites (L. salmonis (preadult 2)): significant lethal effect; also recorded: high mortality rates |
| CN1CCC[C@H]1c1cccnc1 [Nicotine] | – | – | – | partial-agonist | 27.9 | – | partial-agonist | – | – | 16.1 | EC50 (Lsa-nAChR1 (α1α2β1β2); [2]): 3950 nM; EC50 (Lsa-nAChR1 (α1α2β1β2); [3]): 3950 nM; EC50 (Lsa-nAChR2 (α3β1β2); [2]): 9980 nM; EC50 (Lsa-nAChR2 (α3β1β2); [3]): 9980 nM |
| CCN(Cc1ccc(Cl)nc1)/C(=C/[N+](=O)[O-])NC [Nitenpyram] | 17.7 | 45 | agonists | partial-agonists | 27.4 | – | partial-agonists | – | agonists | 70.1 | EC50 (Lsa-nAChR2 (α3β1β2)): 381 nM |
| N#C/N=C1\SCCN1Cc1ccc(Cl)nc1 [Thiacloprid] | 100.0 | – | agonists | partial-agonist | 6.1 | No effect | did not show any effect | – | agonists | – | lethal effect / mortality of preadult parasites (L. salmonis (preadult 2)): significant lethal effect; also recorded: high mortality rates; EC50 (Lsa-nAChR1 (α1α2β1β2); [2]): 12 nM; type of effect on the receptor (agonist / partial-agonist / super-agonist / no effect) (Lsa-nAChR2 (α3β1β2); 1:1 (α:β) ratio, listed as thiacloprid): did not affect; also recorded: did not demonstrate any ex-vivo effect |
| CN1COCN(Cc2cnc(Cl)s2)/C1=N\[N+](=O)[O-] [Thiamethoxam] | 0.0 | – | – | – | – | No effect | – | No effect | – | – | – |
| OCCCCC#Cc1cncc(OC[C@@H]2CCN2)c1 [sazetidine A, Sazetidine A] | – | – | – | – | – | – | – | – | – | – | inward current on average (Lsa-nAChR1 (α1α2β1β2); α:β = 1:10, n = 3): 0.22 μA; inward current on average (Lsa-nAChR1 (α1α2β1β2); α:β = 10:1, n = 3): 0.24 μA; inward current on average (Lsa-nAChR2 (α3β1β2); 10 μM sazetidine A, α:β = 10:1, n = 3 (assignment uncertain)): 0.50 μA; responsiveness to sazetidine A (Lsa-nAChR2 (α3β1β2); 10 μM, α:β = 10:1): responsive |
| Emamectin | – | – | – | – | – | No effect | – | No effect | – | – | – |
